# Assay results: patent US7381722B2, “Tetracyclic amino and carboxamido compounds and methods of use thereof” (Inotek Pharmaceuticals Corporation, priority 2005, dated 2008)
# Target: T1, PARS (Mus musculus, UniProt P11103)
# T1 construct: endogenous in cells; host or cells: Raw murine macrophages
# Assay: Cell protection assay: PARS activity in peroxynitrite-treated Raw murine macrophages
# Format: cell-based
# Details: compound 15 min before peroxynitrite (750 μM) for 15 min, PARS activity by 3H-NAD incorporation, EC50 from dose-response curve
# Protocol: Raw murine macrophages were treated with an illustrative Tetracyclic Amino Compound or Tetracyclic Carboxamido Compound for 15 minutes prior to the addition of peroxynitrite (750 μM) for a further 15 minutes. For the measurement of PARS activity, the media were removed and replaced with 0.5 ml HEPES (pH 7.5) containing 0.01% digitonin and ^3H-NAD (0.5 μCi ml^−1, final concentration of NAD^+ in buffer is 20 nM/L) for 20 minutes. The cells were then scraped from the wells and placed in Eppendorf tubes containing 200 μl of 50% (w/v) ice-cold trichloroacetic acid (TCA). The tubes were then placed at 4° C. After 4 hr the tubes were centrifuged at 1800 g for 10 minutes and the supernatant removed. The pellets were washed twice with 500 μl ice-cold 5% TCA. The pellets were solubilized in 250 μl NaOH (0.1 M) containing 2% SDS overnight at 37° C. and the PARS activity was then determined by measuring the radioactivity incorporated using a Wallac scintillation counter. The solubilized protein (250 μl) was mixed with 5 ml of scintillant (ScintiSafe Plus, Fisher Scientific) before being counted for 10 minutes. The EC50 value was calculated from a dose-response curve.
# T1 sequence (P11103 whole entry): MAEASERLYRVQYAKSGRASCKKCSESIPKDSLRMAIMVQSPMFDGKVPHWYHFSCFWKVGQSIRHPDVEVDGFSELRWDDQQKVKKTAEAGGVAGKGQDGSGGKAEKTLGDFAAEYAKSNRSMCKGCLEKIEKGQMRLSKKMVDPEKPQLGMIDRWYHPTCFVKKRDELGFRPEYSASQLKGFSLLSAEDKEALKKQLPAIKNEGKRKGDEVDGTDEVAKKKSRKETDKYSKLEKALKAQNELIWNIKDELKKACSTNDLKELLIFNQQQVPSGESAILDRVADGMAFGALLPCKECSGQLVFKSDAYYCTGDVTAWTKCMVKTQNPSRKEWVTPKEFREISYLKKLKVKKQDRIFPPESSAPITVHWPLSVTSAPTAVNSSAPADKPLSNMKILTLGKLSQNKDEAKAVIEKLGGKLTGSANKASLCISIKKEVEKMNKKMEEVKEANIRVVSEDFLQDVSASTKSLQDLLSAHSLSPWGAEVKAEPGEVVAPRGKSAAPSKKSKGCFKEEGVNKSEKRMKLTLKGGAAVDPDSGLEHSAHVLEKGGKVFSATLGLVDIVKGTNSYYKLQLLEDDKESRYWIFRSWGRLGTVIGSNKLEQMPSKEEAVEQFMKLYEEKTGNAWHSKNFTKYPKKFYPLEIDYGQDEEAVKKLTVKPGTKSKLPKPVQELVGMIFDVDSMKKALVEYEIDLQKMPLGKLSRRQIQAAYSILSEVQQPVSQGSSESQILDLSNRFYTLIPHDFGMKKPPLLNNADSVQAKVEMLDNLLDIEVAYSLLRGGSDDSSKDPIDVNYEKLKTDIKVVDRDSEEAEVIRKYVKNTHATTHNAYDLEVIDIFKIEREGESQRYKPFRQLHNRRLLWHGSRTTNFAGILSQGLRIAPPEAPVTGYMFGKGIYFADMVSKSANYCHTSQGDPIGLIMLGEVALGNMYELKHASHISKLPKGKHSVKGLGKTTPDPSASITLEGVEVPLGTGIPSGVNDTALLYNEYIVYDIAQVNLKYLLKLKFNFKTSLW
row,EC50 [nM],SMILES
1,> 1500,CN(C)CCCNC(=O)c1cccc2c1Cc1c-2[nH]c(=O)c2ccccc12 [Compound 15b]
2,1100,O=C(NCCCN1CCOCC1)c1ccc2c(c1)Cc1c-2[nH]c(=O)c2ccccc12 [Compound 14b]
3,> 1500,O=C(NCCCN1CCOCC1)c1cccc2c1Cc1c-2[nH]c(=O)c2ccccc12 [Compound 16b]
4,1100,O=C(NCCN1CCOCC1)c1ccc2c(c1)Cc1c-2[nH]c(=O)c2ccccc12 [Compound 14a]
5,900,CN(C)CCCNC(=O)c1ccc2c(c1)Cc1c-2[nH]c(=O)c2ccccc12 [Compound 13b]
6,> 1500,CN(C)CCNC(=O)c1cccc2c1Cc1c-2[nH]c(=O)c2ccccc12 [Compound 15a]
7,> 1500,O=C(NCCN1CCOCC1)c1cccc2c1Cc1c-2[nH]c(=O)c2ccccc12 [Compound 16a]
